Measured values from US9606124B2, “Methods of detecting and treating stem-cell containing solid tumors” (The Regents of The University of Michigan, priority 2008, dated 2017).
“Also recorded” adds a separate entry of the source.

Columns and labels:
[1] = tested on: CD44+/CD24- cell population of MC1, UM2, UM3 xenografts; experiment: CD44+/CD24- cells in treated tumors (flow cytometry); parameters: species or system NOD/SCID mice; settings: mouse, in vivo
Method: (§1) Animal model. […] Cells from these tumors were transplanted orthotopically in the humanized cleared fat-pad of NOD/SCID mice, without cultivation in vitro. […] 50,000 cells from each xenotransplants were injected in the humanized fat pad of NOD/SCID mice and monitored the tumor growth. […] The animals were euthanized when the tumors were approximately 1.5 cm in the largest diameter, to avoid tumor necrosis and in compliance with regulations for use of vertebrate animal in research. A portion of each fat pad injected was fixed in formalin and embedded in paraffin for histological analysis. The rest of the tumor cells were re-implantated into secondary NOD/SCID mice. Serial dilutions of cells were utilized for the re-implantation with injection of 10,000, 1,000, and 100 cells for each treated tumor.
Flow cytometry analysis. […] CD95/FAS staining were performed utilizing an anti-CD95 labeled APC (1:20, BD biosciences). […] Fresh cells were stained with 1 μg/ml PI (Sigma) for 5 min for viability.

[2] = tested on: SUM159 cell line and human breast cancer xenografts MC1, UM2, UM3; experiment: Tumor growth of breast cancer xenografts in the mammary fat pad; assay type: in vivo, NOD/SCID mice; settings: repertaxin 15 mg/Kg s.c. twice a day 28 days, docetaxel 10 mg/Kg i.p. once a week, start at tumor size about 4 mm, trihydrate
Method: For each sample, 50,000 cells were injected into the mammary fat pad of NOD-SCID mice which were monitored for tumor size. Injections were started when the tumor size was about 4 mm.
as §1

[3] = tested on: ALDH1; experiment: Immunohistochemistry of ALDH1 in xenotransplants; assay type: in vivo, NOD/SCID mice; settings: compared to untreated tumors
Method: (§2) Immunostaining. For immunofluorescent staining, sorted CXCR1-positive cells were fixed with 95% methanol at −20° C. for 10 minutes. Cells were rehydrated in PBS and incubated with respective antibodies at room temperature for 1 hour. Primary antibodies used were P-FAK (1:50, Cell Signaling Technology), P-AKT (1:300, Cell Signaling Technology), and FOXO3a (1:250, Cell Signaling Technology). Slides were then washed and incubated 30 minutes with PE conjugated secondary antibodies (Jackson labs). The nuclei were counterstained with DAPI/antifade (Invitrogen) and coverslipped. […] Immunohistochemistry for the detection of ALDH1 (1:100, BD biosciences), P-FAK, P-AKT, FOXO3a expression was done on paraffin section (Ginestier et al. Am. J Pathol. 161:1223-1233, herein incorporated by reference in its entirety). Staining was done utilizing the Histostainplus kit (Zymed laboratories). Diaminobenzidine (DAB) or 3-amino-9-ethylcarbazole (AEC) was used as chromogen and sections were counterstained with hematoxylin.

[4] = tested on: FAS-ligand mRNA; experiment: Quantitative RT-PCR of FAS-ligand mRNA in SUM159 cells; assay type: cell-based, human; settings: repertaxin 100 nM, FAS agonist 500 ng/ml, docetaxel 10 nM, trihydrate
Method: RNA extraction and qRT-PCR. After SUM159 cells were treated, total RNA was isolated using RNeasy Mini Kit (QIAGEN) and utilized for real-time quantitative RT-PCR (qRT-PCR) assays in a ABI PRISM® 7900HT sequence detection system.

[5] = tested on: cells from primary tumors SUM159, MC1, UM2, UM3; experiment: Re-implantation of cells from treated tumors into secondary mice; assay type: in vivo, NOD/SCID mice
Method: as §1, with “Serial dilutions of cells were utilized for the re-implantation with injection of 10,000, 1,000, and 100 cells for each treated tumor.” left out

[6] = tested on: FOXO3A; experiment: Immunohistochemistry of FOXO3A in xenotransplants; parameters: species or system NOD/SCID mice; settings: mouse, in vivo
Method: as §2

[7] = tested on: ALDEFLUOR-positive cells of SUM159, MC1, UM2, UM3 tumors; experiment: ALDEFLUOR assay on treated tumor xenografts; assay type: in vivo, NOD/SCID mice; settings: residual tumors after four weeks of treatment; trihydrate
Method: ALDEFLUOR assay. […] In order to eliminate cells of mouse origin from the xenotransplanted tumors, cell population was stained with an anti-H2Kd antibody (BD biosciences, 1/200, 20 min on ice) followed by staining with a secondary antibody labeled with phycoerythrin (PE) (Jackson labs, 1/250, 20 min on ice).
as §1

[8] = tested on: four breast cell lines cultured in adherent conditions; experiment: ALDEFLUOR-positive population of breast cell lines treated with IL8; assay type: cell-based; settings: human recombinant IL8
Method: ALDEFLUOR Assay and Separation of the ALDH-positive Population by FACS. ALDH activity was assessed in 33 BCLs representing the main molecular subtypes of human breast cancer. The ALDEFLUOR kit (StemCell technologies, Durham, N.C., USA) was used to isolate the population with high ALDH enzymatic activity (17). Cells obtained from subconfluent cell lines after trypsinization or from freshly dissociated xenografts were suspended in ALDEFLUOR assay buffer containing ALDH substrate (BAAA, 1 μmol/l per 1×10^6 cells) and incubated for 40 minutes at 37° C. In each experiment a sample of cells was stained under identical conditions with […] of diethylaminobenzaldehyde (DEAB), a specific ALDH inhibitor, as negative control. Flow cytometry sorting was conducted using a FACStarPLUS (Becton Dickinson). ALDEFLUOR fluorescence was excited at 488 nm and detected using standard fluorescein isothiocyanate (FITC) 530/30 band pass filter. For xenotransplanted tumors, incubation with an anti-H2Kd antibody (BD biosciences, 1/200, 20 min on ice) followed by a secondary antibody labeled with phycoerythrin (Jackson labs, 1/250, 20 min on ice) was used to eliminate cells of mouse origin. […] For both cell lines, sorted ALDEFLUOR-positive populations contained more than 98% of ALDEFLUOR-positive cells and no ALDEFLUOR-positive cells were detected in the ALDEFLUOR-negative population.

[9] = tested on: ALDEFLUOR-positive and -negative cells of HCC1954, MDA-MB-453, SUM159; experiment: Matrigel invasion assay with IL8 as attractant; assay type: cell-based, human; settings: IL8 100 ng/ml as attractant
Method: Invasion assay. Assays were done in triplicate in transwell chambers with 8 μm pore polycarbonate filter inserts for 12-well plates (Corning, N.Y.). Filters were coated with 30 ul of ice-cold 1:6 basement membrane extract (Matrigel, BD-Bioscience) in DMEM/F12 incubated 1 hour at 37° C. Cells were added to the upper chamber in 200 ul of serum-free medium. For the invasion assay, 5000 cells were seeded on the Matrigel-coated filters and the lower chamber was filled with 600 ul of medium supplemented with 10% human serum (Cambrex) or with 600 ul of serum-free medium supplemented with IL8 (100 ng/mL). After 48 hours incubation, the cells on the underside of the filter were counted using light microscopy. Relative invasion was normalized to the unseparated corresponding cell lines under serum condition.

[10] = tested on: HCC1954, SUM159, MDA-MB-453; experiment: Tumorsphere formation of breast cell lines treated with IL8; assay type: cell-based; settings: human recombinant IL8
Method: Anchorage-independent culture. ALDEFLUOR-positive, -negative and unseparated cells from 184A1, SUM149 and SUM159 were plated as single cells in ultra-low attachment plates (Corning, Acton, Mass.) at low density (5000 viable cells/ml). Cells were grown in serum-free mammary epithelial basal medium (Cambrex Bio Science, Walkerville, Md.) for 3-7 days, as described (18). The capacity of cells to form spheres was quantified after treatment with different doses of IL8 (GenWay Biotech, San Diego, Calif.) added to the medium.

[11] = tested on: normal mammary epithelial cells; experiment: Mammosphere formation by normal mammary epithelial cells; assay type: cell-based, human; settings: normal mammary epithelial cells in suspension, human recombinant IL-8

CC(=O)O[C@@]12CO[C@@H]1C[C@H](O)[C@@]1(C)C(=O)[C@H](O)C3=C(C)[C@@H](OC(=O)[C@H](O)[C@@H](NC(=O)OC(C)(C)C)c4ccccc4)C[C@@](O)([C@@H](OC(=O)c4ccccc4)[C@H]21)C3(C)C [Docetaxel, (2R,3S)-N-carboxy-3-phenylisoserine, N-tert-butyl ester, 13-ester with 5b-20-epoxy-12a,4,7b,10b,13a-hexahydroxytax-11-en-9-one 4-acetate 2-benzoate, trihydrate]
percent of CD44+/CD24- cells in residual tumors [1]: unchanged or increased percent
tumor size / tumor growth compared to the control ([2]; listed as docetaxel): significant inhibition of tumor growth; also recorded: statistically significant reduction of the tumor size
tumor size / tumor growth compared to the control [2]: statistically significant reduction of the tumor size
ALDH1-positive cells / ALDH1 expression in treated tumors [3]: unchanged or increased
increase of FAS-ligand mRNA level compared to non-treated cells ([4]; listed as docetaxel): induced both IL-8 and FAS-ligand mRNA
increase of FAS-ligand mRNA level compared to non-treated cells [4]: induced both FAS-ligand (A) and IL-8 (B) mRNA
Tumors/Injections ([5]; number of cells injected 100): 8/9
Tumors/Injections ([5]; number of cells injected 250): 2/3
Tumors/Injections ([5]; number of cells injected 500): 3/4
Tumors/Injections ([5]; number of cells injected 1,000): 6/6
Tumors/Injections ([5]; number of cells injected 2,500): 2/2
Tumors/Injections ([5]; number of cells injected 5,000): 4/4
Tumors/Injections ([5]; number of cells injected 10,000): 2/2
secondary tumor formation / regrowth from serial dilutions of treated primary tumors ([5]; secondary NOD/SCID mice, no further treatment, trihydrate): formed secondary tumors at all dilutions
nuclear FOXO3A in treated tumors [6]: detected
ALDEFLUOR-positive cells (cancer stem cells) in treated tumors, decrease compared to the control [7]: unchanged or increased

IL8: human recombinant IL8 (GenWay Biotech), chemokine ligand of CXCR1
ALDEFLUOR-positive population [8]: increased the ALDEFLUOR-positive population in a dose-dependent manner
invasive capacity of ALDEFLUOR-negative cells [9]: did not have any effect; also recorded: no effect
invasion of ALDEFLUOR-positive cells through Matrigel ([9]; compared to serum): increased invasion; also recorded: significant increase
formation of primary and secondary tumorspheres [10]: increased the formation of primary and secondary tumorspheres in a dose-dependent manner; also recorded: increased the formation of primary and secondary tumorospheres in a dose-dependent manner
formation of primary and secondary mammospheres [11]: increased the formation of primary (B) and secondary mammospheres (C) in a dose-dependent manner
formation of primary and secondary mammospheres ([11]; listed as IL-8): increased the formation of primary and secondary mammospheres in a dose-dependent manner
